Data as given in patent US8710068B2, “Method of treating cancer using a survivin inhibitor” (The Trustees Of The University Of Pennsylvania, priority 2009, dated 2014).

How the values were obtained:
Sur-F86A = target: T1, Sur-F86A (Homo sapiens, UniProt O15392, F86A); assay: ITC binding to Survivin mutant F86A; conditions: in words
T1 construct: made in house; host or cells: bacteria
Procedure: FIG. 5 illustrates an analysis of S12-Survivin binding with isothermal titration calorimetry (ITC). Single-site point mutagenesis was performed to create the Survivin mutants F86A and V89Y. The native and the mutant proteins were produced and purified from bacteria.
In order to examine the specificity of the binding, we generated point mutations on the Survivin protein at the site presumably targeted by S12. The two mutations were substitutions of phenylalanine 86 with alanine (F86A) and valine 89 with tyrosine (V89Y). These two altered sites are also adjacent to the interface involved in dimerization of the Survivin protein. Based on structural analyses, we predict that alterations of either of these two amino acid residues may abolish the binding of S12 without affecting the overall structure of the Survivin protein.

[1] = system: AsPC1 pancreatic cancer cells; assay: MTT tumor cell proliferation assay, AsPC1; type: cell-based, human; conditions: AsPC1, 5, 10, 20, or 50 μg/ml for 48 hours
Procedure: FIG. 3 illustrates the effect of S2 and its analogs on tumor cell proliferation. Cells were treated with DMSO or Survivin targeting molecules at the indicated concentration for 48 hours. The percentage of viable cells was evaluated by MTT assay. (A) AsPC1; (B) HeLa; (C) SKBR3; (D) DAOY.
FIG. 18 illustrates the effect of SBDO3, SN2, or SDC1 on tumor cell proliferation. (A) AsPC1 cells were treated with DMSO or the Survivin targeting molecules SBDO3 or SN2 at the indicated concentration for 48 hours. (B) SKBR3 cells were treated with DMSO or SDC1 for 48 hours. The percentage of viable cells was evaluated by MTT assay.
S2 and its analogs (S10, S11, S12, and S13) were tested for the ability to inhibit tumor cell proliferation by MTT assay. The AsPC1 pancreatic cancer cells were treated with DMSO, a control molecule SC2, or the Survivin-targeting compounds at the concentration of 5, 10, 20, or 50 μg/ml for 48 hours. The number of viable cells was evaluated by MTT.
SBDO3, SN2 and SDC1 were tested for the ability to inhibit tumor cell proliferation by MTT assay. The AsPC1 pancreatic cancer cells were treated with DMSO or the Survivin-targeting compounds at the concentration of 5, 10, 20, or 50 μg/ml for 48 hours. The number of viable cells was evaluated by MTT.

HeLa cells = assay: Immunofluorescence microscopy of mitosis and spindle formation, HeLa; type: cell-based, human
Procedure: FIG. 8 illustrates the effect of S2 on mitotic spindle formation. HeLa cells were treated with S2 or DMSO for 15 hours. The cells were then fixed and subjected to immunostaining using the anti-β-Tubulin (green) and the anti-Survivin (red). Representative fluorescent microscopy images are shown. Note that short microtubule bundles form in S2-treated cells.
FIG. 9 illustrates the effect of S12 on mitosis. (A) HeLa cells were treated with S12, S2 or DMSO for 15 hours. The cells were then fixed and subjected to immunostaining using antibodies specific for Aurora B (green) and Survivin (red). DNA was stained with DAPI. Chromosome misalignment is indicated with the arrowheads. (B) Percentage of S12-treated cells in mitosis, in metaphase, in anaphase/telophase, or with misaligned chromosomes. (C) Percentage of S2-treated cells in mitosis, in metaphase, in anaphase/telophase, or with misaligned chromosomes. (D) HeLa cells were treated with S12 (10 μg/ml) or DMSO (control) for 15 hours. Cells were examined by PI staining of DNA content by FACS analysis.
FIG. 17 illustrates (A) FACS analysis of DNA content of HeLa cells treated with SBDO3. Note the accumulation of cells at the G2/M stage. Cell death was also observed (sub-G1 population); (B) Immuno-fluorescence microscopy analysis of cell treated with SBDO3. Note that the microtubule bundles of the mitotic spindle are disorganized. The chromosomes are not aligned properly and cells cannot go through metaphase.
FIG. 19 illustrates immunofluorescence studies of Survivin localization. (A) Untreated HeLa cells were subjected to immunostaining using a monoclonal anti-beta-Tubulin antibody (green) or a polyclonal anti-Survivin antibody (red). Images of cells at various stages of mitosis are shown. (B) HeLa cells were treated with S2 for 6 hours. Cells were immunostained with anti-beta-Tubulin antibody (green) or a polyclonal anti-survivin antibody (red). Note that localization of Survivin to the midbody was not affected by S2.
The effect of S2 and its analogs on the progression of cell cycle was examined by immunofluorescence microscopy. HeLa cells were plated on coverglass and treated with the Survivin-targeting compound S2 (10 μg/ml) or with the solvent DMSO alone for 15 hours. Cells were stained with the anti-β-Tubulin antibody (green) and anti-Survivin antibody (red). S2 can block cell division at the early stage of mitosis (FIG. 8). […] The microtubules in this case are very short, with one end attached to the centrosome and the other end to the kinetochore of the chromosomes (FIG. 8).
We extended the immunofluorescence studies to define the cell stage in the cells that were arrested by S2 or its analogs. Cells were also stained with anti-Aurora B antibody or anti-Survivin antibody in order to determine whether the localization of Survivin or Aurora B proteins are changed by these small molecules. Upon S2 or S12 treatment, we observed that cells accumulate in a stage with condensed chromosomes but without proper alignment of chromosomes on the mitotic plate (FIG. 9). The percentage of cells that progress to metaphase or beyond was reduced by S2 or S12 treatment (FIG. 9). […] Moreover, localization of Survivin to the midbody was also not affected.
Effects of the Survivin-targeting compound S12 on cell cycle progression was examined by immunofluorescence microscopy. HeLa cells were plated on coverglass and treated with S12 (40 μM) or with the solvent DMSO alone for 15 hours. […]

AsPC1 tumor xenograft = assay: Immunohistochemistry of tumor xenograft (Ki67, TUNEL); type: in vivo, athymic mice
Description: FIG. 14 illustrates the immunohistochemistry analysis of tumor xenograft following treatment with S12 or PBS.
We performed immunohistochemistry studies to analyze the cellular effects of S12 treatment on the tumors. […] In addition, we examined apoptosis using the TUNEL assay.

T1 sequence (O15392 whole entry F86A): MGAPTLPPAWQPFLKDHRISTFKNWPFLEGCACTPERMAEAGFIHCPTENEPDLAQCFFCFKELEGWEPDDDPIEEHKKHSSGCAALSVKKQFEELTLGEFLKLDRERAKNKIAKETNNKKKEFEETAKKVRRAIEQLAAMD

## O=C(CC1(O)C(=O)Nc2ccc(Br)cc21)c1ccc2c(c1)OCO2 (stereo not drawn) [S12]
Sur-F86A
  binding to mutant Sur-F86A: did not bind
[1]
  inhibition of cell proliferation / cell viability: can inhibit cell proliferation and reduce cell viability in a dose-dependent manner
HeLa cells; 15 hours
  percentage of cells that progress to metaphase or beyond: reduced
HeLa cells; 15 hours, immunofluorescence
  formation of the mitotic spindle: can cause defects in formation of the mitotic spindle
HeLa cells; immunofluorescence
  localization of Survivin or Aurora B to the kinetochore: did not alter
  localization of Survivin to the midbody: not affected
  mitotic stage at which cells accumulate: arrested by S12 in an early stage of mitosis
AsPC1 tumor xenograft; immunohistochemistry of tumor xenograft
  proliferation of tumor cells (Ki67): drastically reduced proliferation of tumor cells
AsPC1 tumor xenograft; tumor xenograft
  apoptosis in the tumors (TUNEL assay): increased the levels of apoptosis
